{"source": "paper PMC9061999", "about": "“Application of the Adverse Outcome Pathway Concept to In Vitro Nephrotoxicity Assessment: Kidney Injury due to Receptor-Mediated Endocytosis and Lysosomal Overload as a Case Study” (Frontiers in Toxicology, 2022)", "tested_on": "NRK-52E cells", "assay": "High content imaging of lysosomes and nuclei (LysoView 633 / SYTO 16)", "type": "cell-based, rat", "protocol": "For high content imaging, NRK-52E and RPTEC/TERT1 cells were cultivated in µ-clear half well area microtiter plates (Greiner) according to the protocol described for the cytotoxicity assay with slight modification. Briefly, NRK-52E cells were seeded at 5,000 cells in 100 µL growth medium per well and were incubated under standard growth conditions for 48 h prior to treatment. RPTEC/TERT1 cells were seeded at 15,000 cells in 100 µL growth medium per well and incubated under standard growth conditions for 7–8 days, until cells reached confluence and started to differentiate. This was indicated by the formation of three-dimensional structures referred to as domes which were identified by regular microscopic inspection of the plates. Only differentiated cell cultures with detectable domes were assayed. Cells of both cell lines were treated with serially diluted Polymyxin B sulfate (concentration range 7.8 to 2,000 µM) for 1, 2, 4, 6, or up to 24 h. The assay was carried out on three biological replicates defined as three different non-consecutive passages of the cell culture. Each biological replicate at each treatment concentration was assayed in triplicate wells per plate.\nFollowing treatment, cells were stained with two different combinations of fluorescent dyes: NRK-52E cells with 50 pg/μL LysoView™ 633 (Biotium) and 1 µM SYTO 16 (Thermo Scientific), respectively, for lysosomes and nuclei; RPTEC/TERT1 cells with 10 nM LysoTracker™ Red (Thermo Scientific) and 10 ng/μL Hoechst 33342 (Merck-Sigma Aldrich), respectively, for lysosomes and nuclei. For each cell line a staining solution was obtained by mixing the lysosomes and nuclei dyes in cell culture medium at the concentrations indicated above. […]\nImages were acquired with a fully automated fluorescence confocal Opera™ QEHS system (PerkinElmer, United Kingdom) using a ×40 air UPlanApo objective (Olympus) with 0.85 numerical aperture. […]\nThe images were analyzed by custom-made image analysis scripts either with the imaging analysis software Acapella (version 2.8 PerkinElmer) or Columbus (version 2.4.0 PerkinElmer). […]", "data": [{"substance": "Polymyxin B", "values": [{"measurement": "Treatment time at which changes in nuclei area and nuclei intensity appeared", "setting": "NRK-52E, 250 µM", "value": 20, "unit": "h"}, {"measurement": "Treatment time at which lysosomal effects with nuclear changes first appeared", "setting": "NRK-52E, 500 µM", "value": 12, "unit": "h"}, {"measurement": "Treatment time from which lysosomal effects were accompanied by nuclear changes", "setting": "NRK-52E, 1,000 and 2000 µM", "value": 8, "unit": "h"}]}]}
